Tests used:
[1] = tested on: A431 cells (skin epitheloids); experiment: Cell adhesion test to immobilized peptides, A431; type: cell-based
Method: Dose-dependent cell adhesion of cell line A431 to various peptides 1, 2 and 3. The peptides were immobilized in 96-well plates at the concentrations given on the abscissa. 8×10^4 cells were deposited in each well and plates were incubated at 37° C. for 1 hour. After washing, attached cells were fixed and cell adhesion was measured as described in the methodology section.
Peptides 1, 2 and 3 were used for the cell adhesion experiments. A range of 7 decreasing concentrations (100 micrograms/ml, 50 micrograms/ml, 25 micrograms/ml, 12.5 micrograms/ml, 6.25 micrograms/ml, 3.125 micrograms/ml and 1.562 micrograms/ml) was made up by successive dilution in PBS (Phosphate Buffer Saline, KH2PO4 1.54 mM; Na2HPO4 1.42 mM; NaCl-131 mM) using a starting solution at a concentration of 1 mg/ml. These solutions were immediately distributed onto a 96-well culture plate (Greinher, Dutscher, Brumath, France) at a rate of 100 μl per well. Plates were then placed at +4° C. for 16 to 18 hours. The solutions were then removed by turning the plates and each well was saturated with a 1% PBS-BSA solution (bovine serum albumin). Three additional wells without the substrate underwent the same treatment and were used as blanks.
Epithelial cells were detached from the culture dishes using a trypsin/EDAT solution (0.05-0.02%) then suspended in DMEM medium without additives for the cell lines and in KBM-2 without additive for human keratinocytes. The number of seeded cells per well is given in the graphs (50,000 to 100,000 cells per well).
After cell seeding, the multi-well plates were placed in an incubator at 37° C. under 5% CO2. After incubation for 30 to 60 minutes, cells were observed under a phase contrast microscope in order to verify that the test was conducted correctly. The adhesion medium was then removed and each well was washed in a sterile PBS solution to remove non-adhering cells. The remaining cells, attached to the substrate, were then fixed using a solution of 1% glutaraldehyde in PBS for 15 minutes. The glutaraldehyde solution as removed and the cells were stained with a crystal violet solution diluted to 1% in distilled water for 30 minutes.
After rinsing in water several times, cells were permeabilized by means of a 0.02% triton solution for 15 minutes in order to solubilize the crystal violet. Absorbances were read at 570 nm using an ELISA plate reader (MR500, Dynatech, Guernsey, Channel Islands). Each experimental point was carried out in triplicate. The blank value represented the mean absorbance of 3 control wells (BSA). This was subtracted from each of the optical density values for the experimental points. We then calculated the mean for the three absorbance values for each of the triplicate samples.
The results are presented in the form of a graph with the absorbance values on the ordinate and the various substrate concentrations on the abscissa. Attached cells were photographed by phase contrast microscopy.
The following cells from epithelial cell lines were used initially (commonly used in preliminary studies on cell adhesion): • line HT1080 cells (human fibrosarcoma), American Type Culture Collection CCL-121. • line HB100 cells (human mammary epithelium), American Type Culture Collection HTB-124. • line A431 cells (skin epitheliods), American Type Culture Collection CRL-1555.

HBL100 cells = experiment: Cell proliferation test (XTT), HBL100; type: cell-based, human; conditions: HBL100, peptide 0.5% and 1%, serum-free medium, 5th hour
Method: HT1080 cells (A) and HBL100 cells (B) were seeded in 96-well plates at a rate of 10,000 cells per well. After 24 hours, the culture medium was removed and replaced with serum-free medium containing the peptide quantities given in the graphs and reagent XTT. The plates were then placed in the incubator at 37° C. and absorbance readings were taken at 1 h, 2 h, 3 h, 4 h and 5 h. Peptide-free controls were carried out on the same plate.
The effect of the peptide on cell proliferation was analysed with the aid of a calorimetric test (Cell Proliferation Kit XTT, Roche Diagnostics, Meylan, France) on the cells use for the cell adhesion test, i.e. HT1080, A431, HBL100 cells and normal human keratinocytes from young and elderly individuals.
The chemical reaction used in the test is based on the production of NADPH by living cells, leading to the reduction of yellow tetrazolium XTT salts to orange formazan salts. Absorbance was measured at 490 nm using an ELISA plate reader. Cells were seeded in 96-well plates at a rate of 10,000 cells per well (6 wells/condition) in KBM-2 culture medium. After 24 hours in culture at 37° C. with 5% CO2, the culture medium was removed and replaced with serum-free medium containing the peptide quantities given in the graphs and the test reagent. The plates were then placed in the incubator at 37° C. and absorbance readings were taken at 1 h, 2 h, 3 h, 4 h and 5 h. […]

NHKs = experiment: Effect of the peptide in soluble form on keratinocyte behaviour in culture; type: cell-based, human
Method: NHKs were seeded in 12-well plates at a rate of 5,000 cells per well. After 24 hours, the culture medium was removed and replaced with new medium containing 5%, 2.5%, 1.25%, 0.6% and 0.3% peptide (B—F). A peptide-free control was carried. The plates were then placed in the incubator at 37° C. for 48 hours. Observations were made with an Axiovert 40 Zeiss microscope. Bar=50 μm
Observation at higher magnification of the cell colonies described in FIG. 6 using an Axiovert 40 Zeiss microscope equipped with a PlasDisc interferential block. Bar=50 μm
Keratinocytes were seeded in 12-well plates (Costar) at a rate of 5,000 cells per well in KBM-2 medium. After 24 hours in culture at 37° C. with 5% CO2, the culture medium was removed and replaced with KBM-2 medium containing the peptide quantities given in the figures (a peptide-free control was also carried out). After 24 hours in culture, the same quantity of peptide was added to the culture medium and the experiment was stopped after a further 24 hours in culture. Microscope analyse was carried out without preliminary fixation using an Axiovert 40 Zeiss microscope coupled to a Coolsnap camera (Roper Scientific, Evry, France).

TALRIRATYGEY (Human laminin 5) [Peptide 1]
immobilized peptide quantity at which adhesion occurred ([1]; A431): 0.62 micrograms
immobilized peptide quantity at which maximum adhesion was achieved ([1]; A431): 1.2 micrograms
cell adhesion to immobilized peptide ([1]; A431, 0 to 10 micrograms immobilized peptide, 8×10^4 cells per well, 1 hour 37° C., absorbance 570 nm): led to cell adhesion
mean increase in cell proliferation compared to the control (HBL100 cells): 8%
cell morphology vs control cells (NHKs; NHKs cultured with the peptide, higher magnification (FIG. 12)): no morphological difference
effect of peptide added to culture medium on colony formation (NHKs; NHKs, 5%, 2.5%, 1.25%, 0.6% and 0.3% peptide in medium, 48 hours, vs peptide-free control): faster formation of cohesive colonies

Reference: patent US7645740B2, “Peptide sequence found in Laminin 5 for treating skin impairments” (Laboratoires d'Anjou Centre National de la Recherche …, priority 2004, dated 2010)
